Laboratory results from patent publication US20070202047A1, “Polyamine-substituted ligands for use as contrast agents” (priority 2006, published 2007).

How the values were obtained:
human serum albumin = biological target: T1, human serum albumin (Homo sapiens, UniProt P02768); test: Serum albumin binding (ultrafiltration, ICP-MS); assay type: in vitro ADME; details: 20 μM complex, 40 g/L HSA, 37° C.; for binding of complex to human serum albumin: 30 or 90 min
T1 construct: purchased Behring, Bern, Switzerland
Procedure: Serum albumin binding. Solutions containing 20 μM Gd-3.1., Gd-5.1. or Gd-6.1. and 40 g/L human serum albumin (Behring, Bern, Switzerland) were incubated at 37° C. for 30 or 90 min. The solutions were subjected to ultrafiltration (filter cutoff 20 kD; Sartorius, Göttingen, Germany), and the amount of unbound complex was determined in the ultrafiltrate with ICP-MS (n=2).
HSA Binding: 20 μM solutions of the complexes were incubated at 37° C. for 30 and 90 minutes in a solution of 40 g HSA/L (Behring, Bern; Switzerland). The amount of unbound complex was determined in ultrafiltrates with ICP-MS.

[1] = Relaxivity measurements in PBS solution; assay type: physicochemical; details: 37° C.; for longitudinal relaxation rate R1(Gd): 250 MHz (5.4 T); for molar chemical shift Δδ(Gd): H2O signal relative to external HDO; for molar chemical shift Δδ(Gd) / molar relaxivity r1: 250 MHz; for molar relaxivity r1: PBS
Procedure: Relaxivity Measurements. A phosphate-buffered saline (PBS, pH 7.4) reference solution and solutions of the Gd complexes Gd-3.1. (60 mM), Gd-5.1. (60 mM), and Gd-6.1. […] Each capillary was then inserted into a standard 5-mm NMR tube containing D2O (99.96% D) for ^1H relaxation rate measurements at 250 MHz (5.4 T, Bruker AC-250 spectrometer) and 37° C. using the inversion-recovery method. The relaxation rates R1 were determined by a three-parameter nonlinear least-squares fit of the intensity data to the equation M(τ)=M0[1−2q exp(−R1τ)] with 8-11 τ values. The transverse relaxation rate R2 was estimated from the H2O signal linewidth Δν at half height (R2=πΔν). The standard error of estimate for R1 was <0.7% for all samples. The relaxivities were estimated as r1 [s^−1 mM^−1]=[R1(Gd)−R1(0)]/[Gd], where [Gd] is the concentration of Gd complex in the sample with relaxation rate R1(Gd), and R1(0) is the rate for the reference sample of PBS. Analogous calculations were made for r2 from R2.
For the ^1H relaxation rate measurements at 250 MHz (5.4 T, Bruker AC-250 spectrometer) and 37° C., sample temperature was regulated to better than ±0.1° C. using the variable temperature unit of the spectrometer. The solutions studied were placed in capillaries to reduce the sample volume and the resulting intensity of the H2O signal, thus avoiding the influences of radiation damping on the relaxation behavior. The D2O solution added to the 5-mm NMR tube provided a field/frequency lock signal and residual HDO as a reference signal. An inversion-recovery pulse sequence (RD-180°-τ-90°-acquisition) was executed with a composite 180° pulse of constant phase, four-step phase cycling of the 90° pulse (7.3 μs) for four transients, and 8-11 τ values. For each sample the list of τ values was chosen after determining the approximate τnull for the “null” point of the recovery curve by trial measurements, and the delay RD was set to at least 10τnull. The resulting spectra were phase and baseline corrected manually, and the H2O signal intensity was determined by the peak picking algorithm of the NMR software.
The relaxation rates R1 were determined by a three-parameter nonlinear least-squares fit of the intensity data to the equation M(τ)=M0[1−2q exp(−R1τ)], where q was an additional fitting parameter used to account for the quality of spin inversion. The theoretical value of q is 1.0, and the fitted values were in the range 0.92-0.95. The transverse relaxation rate R2 was estimated from the H2O signal linewidth Δν at half height (R2=πΔν), and the chemical shift Δδ(Gd) of the H2O signal from the capillary relative to the HDO signal from the external D2O was determined as an additional measure of the paramagnetism of the Gd complex. The standard error of estimate for R1was <0.7% for all samples. The relaxivities were estimated as r1 […]=[R1(Gd)−R1(0)]/[Gd], where [Gd] is the concentration of Gd complex in the sample with relaxation rate R1(Gd), and R1(0) is the rate for the reference sample of PBS. Analogous calculations were made for r2 from R2 and for Δδ(Gd).

[2] = system: subcutaneous MH3924A tumor; test: MRI of ACI rats bearing a subcutaneous MH3924A tumor; assay type: in vivo, rat; details: 0.1 mmol/kg i.v., 2.35 T
Procedure: Animal models. For in vivo tumor studies 2×10^6 MH3924A tumor cells were injected subcutaneously into the right thigh of male ACI rats (Charles River, Sulzfeld, Germany) weighing 220 to 260 g. All animal experiments were performed in compliance with the German Animal Protection Laws (Permission 35-9185.81/G-7-03, Reg.-Praesidium, Karlsruhe, Germany).
MRI. At 25 days after inoculation, when tumors had reached a diameter of ca. 10-15 mm, the MR imaging experiments were initiated. ACI rats were anesthetized by intravenous injection of ketamin (Ketanest®, 0.1 mg/g body wt.; Parke-Davis, Berlin, Germany). Then a dose of 0.1 mmol/kg Magnevist® or Gadovist® (Schering, Berlin, Germany) or one of the synthesized agents Gd-3.1., Gd-5.1. or Gd-6.1. was injected intravenously into a lateral tail vein. For one experiment a higher dose (0.36 mmol/kg) of Magnevist® was used. Individual rats were examined by MRI at 1 h and 24 h post Gd, in the case of Magnevist® also at ca. 15 min post Gd. Proton imaging studies were performed at 2.35 T (100.3 MHz) with a Biospec 24/40 instrument (Bruker BioSpin MRI, Ettlingen, Germany). […] Two transaxial multislice imaging protocols were applied with a field of view of 70×70 mm, 128 time-domain data points, 96 phase-encoding steps, and 16 slices of 2 mm thickness. A multi-spin-echo sequence was used for proton-density and T2-weighted images (repetition time TR=2 s, 12 echoes with echo times TE of 8, 16, 24, . . . 96 ms, number of averages=1), and a spoiled gradient-echo sequence was used for T1-weighted imaging (TR=212 ms, TE=5 ms, flip angle=60°, number of averages=3). The data were Fourier transformed to give a 128×128 image matrix with 0.55 mm pixel resolution. Analogous T1-weighted images with coronal slices were acquired with a field of view of 80×80 mm and 3-mm slice thickness.
Imaging viewing, ROI analysis and export of TIFF files was performed with the freeware MRIcro from Chris Rorden (http://people.cas.sc.edu/rorden/mricro.html).

T1 sequence (P02768 25-609): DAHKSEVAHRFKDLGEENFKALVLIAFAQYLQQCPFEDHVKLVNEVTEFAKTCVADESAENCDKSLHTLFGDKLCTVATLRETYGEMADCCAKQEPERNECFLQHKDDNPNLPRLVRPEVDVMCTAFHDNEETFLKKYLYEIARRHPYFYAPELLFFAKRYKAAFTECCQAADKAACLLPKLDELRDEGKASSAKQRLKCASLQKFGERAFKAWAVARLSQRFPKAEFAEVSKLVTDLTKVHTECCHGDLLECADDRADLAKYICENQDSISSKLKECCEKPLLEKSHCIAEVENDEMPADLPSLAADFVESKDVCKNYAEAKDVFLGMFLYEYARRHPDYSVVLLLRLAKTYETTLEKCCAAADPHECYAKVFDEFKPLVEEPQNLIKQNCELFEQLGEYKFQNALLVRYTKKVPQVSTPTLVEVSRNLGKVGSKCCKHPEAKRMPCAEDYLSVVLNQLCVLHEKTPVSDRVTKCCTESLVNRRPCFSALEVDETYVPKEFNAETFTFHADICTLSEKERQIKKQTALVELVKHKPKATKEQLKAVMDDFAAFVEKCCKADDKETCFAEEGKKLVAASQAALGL

Compound | binding of complex to human serum albumin (human serum albumin) | longitudinal relaxation rate R1(Gd) ([1]; 60 mM in PBS) [s⁻¹] | molar chemical shift Δδ(Gd) [1] [ppm mM-^−1] | molar relaxivity r1 [1] [s⁻¹ mM⁻¹] | contrast ratio tumor vs. muscle tissue, T1 weighting ([2]; 1 h post Gd) | contrast ratio tumor vs. muscle tissue, T1 weighting ([2]; 24 h post Gd) | complex found to be free (unbound) (human serum albumin; ultrafiltrate) [%] | longitudinal relaxation rate R1(Gd) ([1]; 30 mM in PBS) [s⁻¹]
NCCN(CCN)C(=O)CN(CCN(CCN(CC(=O)[O-])CC(=O)N(CCN)CCN)CC(=O)[O-])CC(=O)[O-].[Gd+3] [Gd-5.1] | no significant binding of complex to protein | 137.9 ± 0.2 | 0.045 | 2.3 | 1.11 | 1.08 | – | –
CCN(CC)CCNC(=O)CN(CCN(CCN(CC(=O)[O-])CC(=O)N(CCN)CCN)CC(=O)[O-])CC(=O)[O-].[Gd+3] [Gd-3.1] | no significant binding of complex to protein | 469 ± 2 | 0.125 | 7.8 | 1.22 | 1.11 | 93±6 | –
NCCCCN(CCCN)C(=O)CN(CCN(CCN(CC(=O)[O-])CC(=O)N(CCCN)CCCCN)CC(=O)[O-])CC(=O)[O-].[Gd+3] [Gd-6.1] | no significant binding of complex to protein | – | 0.161 | 6.5 | 1.49 | 1.21 | – | 194.5 ± 0.9
